Laboratory results published in PMC9386018, “A lymphatic-absorbed multi-targeted kinase inhibitor for myelofibrosis therapy” (Nature Communications, 2022).
Where “and” joins values, the source holds several entries; their conditions need not be identical. Equal values may be shown once.

Legend:
[1] = Pathological and histological toxicity screening in healthy mice; format: in vivo, mouse; design: Hematology Analysis WBC: unit not given here; conditions: for Body weight: Supplementary Figure 8a
Protocol: Female CD-1 mice were dosed orally with vehicle (Maisine CC; n = 5) or LP-182 at 400 mg kg^−1 (n = 4) daily for 10 d, followed by an 8 d rest period, then underwent necropsy for hematological, histological, and pathological evaluation by the University of Michigan Unit for Laboratory Animal Medicine In Vivo Animal Core. Untreated animals (n = 3) were also monitored during the study for non-compound related adverse findings (ie. gavage stress impacting weight gain, vehicle-related toxicity), however no findings were observed, thus main comparisons were made between vehicle and compound treated mice. […] Briefly, mice were euthanized by CO2 inhalation, then blood was collected by cardiac puncture and transferred into EDTA anticoagulant-containing tubes, followed by gross necropsy, then tissue harvest and fixation in 10% neutral buffered formalin at a 10:1 (v/v) ratio of fixative to tissue. Differential blood counts were generated from whole blood using a Hemavet 950 automated hematology analyzer (Drew Scientific), and tissues were processed for paraffin embedding using routine histological methods, then sectioned at 4 µm by rotary microtome and mounted on glass slides for hematoxylin and eosin (H&E) staining and evaluation by light microscopy at magnifications ranging from 10–40x. Data was generated from n ≥ 3 individual animals per grouping. Two animals in the vehicle treated group were excluded from blood count analysis due to insufficient sample collection and sample clotting, respectively.

[2] = target: 321 human protein kinases (Homo sapiens, UniProt Q99755); assay: Single-point broad panel kinome screening (SelectScreen Z'-LYTE and Adapta); format: biochemical; conditions: PIP5K1A; […] LP-182; [ATP] 10 μM
Protocol: (§1) Quantitation of kinase inhibition was carried out by Life Technologies (Madison, WI) using the SelectScreen profiling platforms Z’-LYTE^TM and Adapta^TM. Single-point broad panel kinome screening was performed at 2.5 µM LP-182 against all kinases within the Z’-LYTE^TM and Adapta^TM assays (321 kinase isoforms, holoenzymes, or mutant variants). The average percent kinase inhibition from replicate data was ranked low to high, converted to a compatible identifier format, then input into Coral Human Kinome Visualization software for presentation analysis. […] Scaling of evolutionary distance for PI kinases is only relative and is based on literature analysis[62],[63]. Average percent kinome inhibition values from replicate data are supplied in Source Data file. […]. Corrected data was normalized to vehicle treated control values, and dose response percent kinase activity was analyzed by non-linear regression for determination of IC50 values.

[3] = target: 321 human protein kinases (Homo sapiens, UniProt O60331); assay: as above; format: biochemical; conditions: PIP5K1C; […] LP-182; [ATP] 10 μM
Protocol: as §1

[4] = target: 321 human protein kinases (Homo sapiens, UniProt O14986); assay: as above; format: biochemical; conditions: PIP5K1B; […] LP-182; [ATP] 10 μM
Protocol: as §1

[5] = target: 321 human protein kinases (Homo sapiens, UniProt P45984); assay: as above; format: biochemical; conditions: MAPK9 (JNK2); […] LP-182; [ATP] 100 μM
Protocol: as §1

[6] = target: 321 human protein kinases (Homo sapiens, UniProt Q16539); assay: as above; format: biochemical; conditions: MAPK14 (p38 alpha); […] LP-182; [ATP] 100 μM
Protocol: as §1

[7] = target: 321 human protein kinases (Homo sapiens, UniProt P45983); assay: as above; format: biochemical; conditions: MAPK8 (JNK1); […] LP-182; [ATP] 100 μM
Protocol: as §1

[8] = target: 321 human protein kinases (Homo sapiens, UniProt P52564); assay: as above; format: biochemical; conditions: MAP2K6 (MKK6); […] LP-182; [ATP] 100 μM
Protocol: as §1

[9] = target: 321 human protein kinases (Homo sapiens, UniProt O15530); assay: as above; format: biochemical; conditions: PDK1; […] LP-182; [ATP] 100 μM
Protocol: as §1

[10] = healthy mice, oral 400 mg kg^−1 for 10 d, 8 d rest
[11] = individual animals, Supplementary Figure 8c
[12] = individual animals, Supplementary Figure 8c, in 10^3/µL (unit assumed)
[13] = individual animals, Supplementary Figure 8c, in % (unit assumed)
[14] = individual animals, Supplementary Figure 8c, in fL (unit assumed)
[15] = individual animals, Supplementary Figure 8c, in g/dL (unit assumed)

Sequence of 321 human protein kinases (Homo sapiens, UniProt O14986) (O14986 whole entry): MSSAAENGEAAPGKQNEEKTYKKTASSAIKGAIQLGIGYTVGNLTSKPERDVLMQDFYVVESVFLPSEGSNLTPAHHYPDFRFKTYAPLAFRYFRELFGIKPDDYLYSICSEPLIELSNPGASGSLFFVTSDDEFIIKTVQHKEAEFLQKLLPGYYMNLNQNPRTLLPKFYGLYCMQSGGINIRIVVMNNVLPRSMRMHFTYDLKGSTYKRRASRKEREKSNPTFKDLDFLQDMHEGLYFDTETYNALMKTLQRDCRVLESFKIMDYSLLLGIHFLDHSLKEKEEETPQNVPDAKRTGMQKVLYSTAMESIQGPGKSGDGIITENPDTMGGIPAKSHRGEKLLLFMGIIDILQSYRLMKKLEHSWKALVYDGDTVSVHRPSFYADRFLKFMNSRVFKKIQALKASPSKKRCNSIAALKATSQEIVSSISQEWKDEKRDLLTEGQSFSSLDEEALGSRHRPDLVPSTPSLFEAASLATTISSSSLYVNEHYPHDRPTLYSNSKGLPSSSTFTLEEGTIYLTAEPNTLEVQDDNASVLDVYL
Sequence of 321 human protein kinases (Homo sapiens, UniProt O60331) (O60331 whole entry): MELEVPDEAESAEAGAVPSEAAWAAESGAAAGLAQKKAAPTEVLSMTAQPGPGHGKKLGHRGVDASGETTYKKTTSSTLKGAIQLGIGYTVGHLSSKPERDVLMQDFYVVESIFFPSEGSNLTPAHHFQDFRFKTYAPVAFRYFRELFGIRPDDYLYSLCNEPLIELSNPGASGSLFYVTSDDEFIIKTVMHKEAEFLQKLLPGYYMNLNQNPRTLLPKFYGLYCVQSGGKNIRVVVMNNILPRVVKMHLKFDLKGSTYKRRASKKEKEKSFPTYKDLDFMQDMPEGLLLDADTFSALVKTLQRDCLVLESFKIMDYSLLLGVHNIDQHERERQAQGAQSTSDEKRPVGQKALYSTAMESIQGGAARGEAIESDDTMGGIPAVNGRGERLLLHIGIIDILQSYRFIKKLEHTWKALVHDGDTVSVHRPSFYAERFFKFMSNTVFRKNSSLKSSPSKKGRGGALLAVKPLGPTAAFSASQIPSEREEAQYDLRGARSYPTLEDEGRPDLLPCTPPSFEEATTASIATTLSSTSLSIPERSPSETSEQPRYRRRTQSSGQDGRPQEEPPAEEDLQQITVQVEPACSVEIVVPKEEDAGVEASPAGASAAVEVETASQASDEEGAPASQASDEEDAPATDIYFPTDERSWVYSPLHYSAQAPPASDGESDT
Sequence of 321 human protein kinases (Homo sapiens, UniProt P45984) (P45984 whole entry): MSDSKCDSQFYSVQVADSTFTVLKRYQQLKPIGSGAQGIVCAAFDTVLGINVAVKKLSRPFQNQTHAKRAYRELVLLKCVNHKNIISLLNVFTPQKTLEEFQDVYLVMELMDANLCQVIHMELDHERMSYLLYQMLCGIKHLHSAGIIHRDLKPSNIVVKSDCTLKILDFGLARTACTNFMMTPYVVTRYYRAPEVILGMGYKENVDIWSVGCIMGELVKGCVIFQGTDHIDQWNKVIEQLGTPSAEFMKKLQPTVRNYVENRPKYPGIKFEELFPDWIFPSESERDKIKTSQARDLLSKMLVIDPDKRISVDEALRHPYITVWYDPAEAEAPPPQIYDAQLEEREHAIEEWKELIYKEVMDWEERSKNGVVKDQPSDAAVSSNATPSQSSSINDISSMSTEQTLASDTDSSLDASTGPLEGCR
Sequence of 321 human protein kinases (Homo sapiens, UniProt Q16539) (Q16539 whole entry): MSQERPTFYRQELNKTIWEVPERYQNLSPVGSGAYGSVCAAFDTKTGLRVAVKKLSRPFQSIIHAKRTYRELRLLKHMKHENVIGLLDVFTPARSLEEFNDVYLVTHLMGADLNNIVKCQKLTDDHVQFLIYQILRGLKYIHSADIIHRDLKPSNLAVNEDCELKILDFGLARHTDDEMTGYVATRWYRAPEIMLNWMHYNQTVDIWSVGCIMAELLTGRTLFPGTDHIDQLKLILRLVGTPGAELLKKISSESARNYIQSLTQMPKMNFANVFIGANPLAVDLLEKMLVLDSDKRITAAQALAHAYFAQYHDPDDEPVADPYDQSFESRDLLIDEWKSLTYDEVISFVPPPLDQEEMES
Sequence of 321 human protein kinases (Homo sapiens, UniProt P52564) (P52564 whole entry): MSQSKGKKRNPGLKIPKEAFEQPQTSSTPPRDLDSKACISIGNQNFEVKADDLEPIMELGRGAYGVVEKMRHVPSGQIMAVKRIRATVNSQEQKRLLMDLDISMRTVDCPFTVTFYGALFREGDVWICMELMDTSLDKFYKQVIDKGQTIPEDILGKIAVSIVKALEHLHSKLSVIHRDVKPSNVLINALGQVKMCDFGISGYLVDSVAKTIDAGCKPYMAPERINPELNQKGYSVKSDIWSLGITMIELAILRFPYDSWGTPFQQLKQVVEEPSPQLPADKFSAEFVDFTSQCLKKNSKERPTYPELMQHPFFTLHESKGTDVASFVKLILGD
Sequence of 321 human protein kinases (Homo sapiens, UniProt O15530) (O15530 whole entry): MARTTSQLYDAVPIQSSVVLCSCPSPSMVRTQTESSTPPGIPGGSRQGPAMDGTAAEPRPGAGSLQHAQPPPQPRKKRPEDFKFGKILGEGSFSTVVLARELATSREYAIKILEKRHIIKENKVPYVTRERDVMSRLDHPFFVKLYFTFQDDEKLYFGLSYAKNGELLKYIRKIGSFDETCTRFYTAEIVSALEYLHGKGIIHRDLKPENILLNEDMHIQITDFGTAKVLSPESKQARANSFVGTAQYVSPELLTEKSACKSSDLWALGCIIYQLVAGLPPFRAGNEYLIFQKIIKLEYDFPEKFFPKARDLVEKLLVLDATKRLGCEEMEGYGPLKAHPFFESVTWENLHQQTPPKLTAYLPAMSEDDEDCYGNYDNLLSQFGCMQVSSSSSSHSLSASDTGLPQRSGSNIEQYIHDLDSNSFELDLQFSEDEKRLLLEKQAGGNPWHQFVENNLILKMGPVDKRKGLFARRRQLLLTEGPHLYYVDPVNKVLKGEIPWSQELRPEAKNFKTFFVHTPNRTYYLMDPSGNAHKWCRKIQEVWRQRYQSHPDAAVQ
Sequence of 321 human protein kinases (Homo sapiens, UniProt P45983) (P45983 whole entry): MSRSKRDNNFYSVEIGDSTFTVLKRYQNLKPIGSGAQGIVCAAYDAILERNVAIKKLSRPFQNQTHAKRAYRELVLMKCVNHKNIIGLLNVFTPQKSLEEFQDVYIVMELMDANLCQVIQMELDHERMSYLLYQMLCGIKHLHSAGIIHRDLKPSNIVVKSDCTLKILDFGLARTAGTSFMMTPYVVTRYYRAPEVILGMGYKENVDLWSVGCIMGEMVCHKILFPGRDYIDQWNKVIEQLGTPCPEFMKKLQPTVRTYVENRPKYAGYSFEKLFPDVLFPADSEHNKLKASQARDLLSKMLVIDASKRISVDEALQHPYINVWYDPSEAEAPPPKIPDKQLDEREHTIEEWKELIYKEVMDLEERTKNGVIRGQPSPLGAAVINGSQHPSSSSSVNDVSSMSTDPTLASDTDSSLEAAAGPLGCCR
Sequence of 321 human protein kinases (Homo sapiens, UniProt Q99755) (Q99755 whole entry, canonical isoform): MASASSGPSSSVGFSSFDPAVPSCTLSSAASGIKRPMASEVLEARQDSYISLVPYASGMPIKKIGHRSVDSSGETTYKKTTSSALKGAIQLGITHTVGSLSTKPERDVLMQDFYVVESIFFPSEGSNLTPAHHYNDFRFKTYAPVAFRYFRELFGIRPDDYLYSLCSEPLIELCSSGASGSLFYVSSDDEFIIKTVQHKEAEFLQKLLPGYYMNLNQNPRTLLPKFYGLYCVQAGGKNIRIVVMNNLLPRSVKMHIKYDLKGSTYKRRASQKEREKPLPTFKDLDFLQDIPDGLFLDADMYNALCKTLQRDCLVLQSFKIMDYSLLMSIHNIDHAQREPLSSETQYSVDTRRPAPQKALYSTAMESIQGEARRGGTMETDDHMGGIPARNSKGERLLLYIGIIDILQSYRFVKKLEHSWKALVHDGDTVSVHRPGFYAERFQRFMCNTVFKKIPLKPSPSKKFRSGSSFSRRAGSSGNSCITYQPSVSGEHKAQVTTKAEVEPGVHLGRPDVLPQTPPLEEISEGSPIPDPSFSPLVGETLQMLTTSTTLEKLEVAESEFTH

O=C(NOCCOCCOCCOCCC(=O)N1CCN(c2cnc3ccc(-c4cnc(Cl)c(NS(=O)(=O)c5ccc(F)cc5)c4)cc3n2)CC1)c1ccc(F)c(F)c1Nc1ccc(I)cc1F [LP-182, N-(2-(2-(2-(3-(4-(7-(6-chloro-5-((4-fluorophenyl)sulfonamido)pyridin-3-yl)quinoxalin-2-yl)piperazin-1-yl)-3-oxopropoxy)ethoxy)ethoxy)ethoxy)-3,4-difluoro-2-((2-fluoro-4-iodophenyl)amino)benzamide]
Relative organ/body weight, Brain ([1]; Brain, individual animals, Supplementary Figure 8b): 1.539% and 1.685% and 1.7935% and 1.6704% | Relative organ/body weight, Left kidney ([1]; Left kidney, individual animals, Supplementary Figure 8b): 0.6549% and 0.6559% and 0.6824% and 0.6502% | Relative organ/body weight, Liver ([1]; Liver, individual animals, Supplementary Figure 8b): 5.775% and 6.631% and 5.788% and 5.583% | Relative organ/body weight, Right kidney ([1]; Right kidney, individual animals, Supplementary Figure 8b): 0.662% and 0.6523% and 0.6788% and 0.6203% | Relative organ/body weight, Spleen ([1]; Spleen, individual animals, Supplementary Figure 8b): 0.5915% and 0.4229% and 0.6217% and 0.4223% | Relative organ/body weight, Thymus ([1]; Thymus, individual animals, Supplementary Figure 8b): 0.2641% and 0.1505% and 0.283% and 0.2317% | Body weight ([1]; Time 1 d, individual animals): 24 g and 26 g and 25 g (2×) | Body weight ([1]; Time 5 d, individual animals): 26 g (3×) and 27 g | Body weight ([1]; Time 10 d, individual animals): 26 g (3×) and 27 g | Body weight ([1]; Time 15 d, individual animals): 27 g (3×) and 30 g | Body weight ([1]; Time 18 d, individual animals): 28.4 g and 27.9 g and 27.99 g and 26.76 g | adverse effects, body weight, complete blood counts [1, 10]: no adverse effects, change in body weight, or change in complete blood counts | necropsy histopathology [1, 10]: no histopathological abnormalities | tolerability [1, 10]: well tolerated with no observed toxicity | Hematology Analysis BA [1, 11]: 0.03 and 0.02 and 0.04 and 0.06 | Hematology Analysis EO [1, 11]: 0.24 and 0.11 and 0.2 and 0.16 | Hematology Analysis WBC [1, 11]: 7.06 and 10.06 and 5.16 (2×) | Hematology Analysis LY [1, 12]: 4.99 and 6.24 and 3.4 and 3.44 | Hematology Analysis MO [1, 12]: 0.24 and 0.93 and 0.14 and 0.21 | Hematology Analysis NE [1, 12]: 1.57 and 2.76 and 1.38 and 1.3 | Hematology Analysis PLT [1, 12]: 721 and 1152 and 272 and 338 | Hematology Analysis RBC ([1]; individual animals, Supplementary Figure 8c, in 10^6/µL (unit assumed)): 8.48 and 9.05 and 9.08 and 9.55 | Hematology Analysis HCT [1, 13]: 49.5 and 47.2 and 51.7 and 49.4 | Hematology Analysis RDW [1, 13]: 16.8 and 16.2 and 17.4 and 15.3 | Hematology Analysis MCV [1, 14]: 58.4 and 52.2 and 56.9 and 51.7 | Hematology Analysis MPV [1, 14]: 5.2 and 4.6 and 5.8 and 5.6 | Hematology Analysis HB [1, 15]: 13.7 and 13.8 and 15 and 14.2 | Hematology Analysis MCHC [1, 15]: 27.7 and 29.2 and 29 and 28.7 | Hematology Analysis MCH ([1]; individual animals, Supplementary Figure 8c, in pg (unit assumed)): 16.2 and 15.2 and 16.5 and 14.9 | inhibition at […] [2]: 26% | inhibition at […] [3]: 28% | % Inhibition [4]: 14% | inhibition at […] [4]: 13% | inhibition at […] [5]: 2.22% | inhibition at […] [6]: 22% | inhibition at […] [7]: 15% | inhibition at […] [8]: 16% | inhibition at […] [9]: 15%
